Test results taken from ChEMBL document CHEMBL5584317, “Acroamine A, a 2-Amino Adenine Alkaloid from the Marine Soft Coral Acrozoanthus australiae and Its Semisynthetic Derivatives That Inhibit cAMP-Dependent Protein Kinase A Catalytic Subunit Alpha” (J Nat Prod, 2024).
pIC50: −log10 of the molar value. Active and inactive are the calls of the source. The calls are words filed in the database; no cut-off is given here.

How the values were obtained:
Homo sapiens [1] = organism: Homo sapiens; test: Inhibition of DNAJB1-[…] gene fusion of J-PKAc alpha chimeric protein (unknown origin) up to 200 uM using CREB KRREILSRRPSYR-biotinylated peptide as substrate incubated for 45 mins in presence of ATP by ELISA
[2] = biological target: T1, cAMP-dependent protein kinase catalytic subunit alpha (Homo sapiens, UniProt P17612); test: Inhibition of PKAcalpha (unknown origin) up to 200 uM using CREB KRREILSRRPSYR-biotinylated peptide as substrate incubated for 45 mins in presence of ATP by ELISA
[3] = biological target: T1, cAMP-dependent protein kinase catalytic subunit alpha; test: Inhibition of PKAcalpha (unknown origin) using CREB KRREILSRRPSYR-biotinylated peptide as substrate incubated for 45 mins in presence of ATP by ELISA
Homo sapiens [4] = organism: Homo sapiens; test: Inhibition of DNAJB1-[…] gene fusion of J-PKAc alpha chimeric protein (unknown origin) at 10 uM using CREB KRREILSRRPSYR-biotinylated peptide as substrate incubated for 45 mins in presence of 25 to 250 uM ATP by ELISA
[5] = Inhibition of DNAJB1-[…] gene fusion of J-PKAc alpha chimeric protein (unknown origin) using CREB KRREILSRRPSYR-biotinylated peptide as substrate incubated for 45 mins in presence of ATP by ELISA; design: species or system Homo sapiens
Homo sapiens [6] = organism: Homo sapiens; test: Potency index, ratio of IC50 for acroamine A to IC50 for test compound for inhibition of DNAJB1-[…] gene fusion of J-PKAc alpha chimeric protein (unknown origin) using CREB KRREILSRRPSYR-biotinylated peptide as substrate incubated for 45 mins in presence of ATP by ELISA
Homo sapiens [7] = organism: Homo sapiens; test: Inhibition of DNAJB1-[…] gene fusion of J-PKAc alpha chimeric protein (unknown origin) at 2 uM using CREB KRREILSRRPSYR-biotinylated peptide as substrate incubated for 45 mins in presence of 25 to 250 uM ATP by ELISA
[8] = biological target: T1, cAMP-dependent protein kinase catalytic subunit alpha; test: Potency index, ratio of IC50 for acroamine A to IC50 for test compound for inhibition PKAcalpha (unknown origin) using CREB KRREILSRRPSYR-biotinylated peptide as substrate incubated for 45 mins in presence of ATP by ELISA

SMILES | inhibition (Homo sapiens [1]) | inhibition [2] | pIC50 [3] | pIC50 [5] | further results
C/N=c1\nc(N(C)CCc2cn(C)c[n+]2C)c2c(ncn2C)n1C | inactive | inactive | – | – | –
C/N=c1\nc(NCCc2cn(C)c[n+]2C)c2c(ncn2C)n1C | inactive | inactive | – | – | –
Nc1nc(NCCc2nc[nH]c2Br)c2nc[nH]c2n1 | – | – | 4.94 | 4.94 | inhibition (Homo sapiens [4]): inactive
Cn1cc(CCNc2n/c(=N\C=[N+](C)C)n(C)c3ncn(C)c23)[n+](C)c1 | inactive | inactive | – | – | –
Nc1nc(NCCc2c[nH]cn2)c2nc[nH]c2n1 | – | – | 4.54 | 4.33 | –
CN(C)c1nc(NCCc2cn(C)c[n+]2C)c2c(n1)[n+](C)cn2C | inactive | inactive | – | – | –
Nc1nc(NCCc2nc(Br)[nH]c2Br)c2nc[nH]c2n1 | – | – | 5.24 | 5.05 | inhibition (Homo sapiens [4]): inactive
Nc1nc(NCCc2nc(Br)[nH]c2Br)c2nc(Br)[nH]c2n1 | – | – | 5.62 | 5.60 | Ratio IC50 (Homo sapiens [6]): 19; inhibition (Homo sapiens [7]): inactive; Ratio IC50 [8]: 19
Cn1cc(CCNc2nc(=N)n(C)c3ncn(C)c23)[n+](C)c1 | inactive | inactive | – | – | –
